Assay results from US20250375540A1, “FIBROBLAST ACTIVATION PROTEIN TARGETING PRECURSOR AND RADIOTRACER” (ITM ONCOLOGICS GMBH, priority 2022, published 2025).

Columns and labels:
PREP = molecular target: T1, PREP (Homo sapiens, UniProt P48147); assay: Affinity to PREP (IC50); assay type: biochemical; settings: for binding to off-target PREP, in words: compared with reference (F) and (G)
T1 sequence (P48147 1-710): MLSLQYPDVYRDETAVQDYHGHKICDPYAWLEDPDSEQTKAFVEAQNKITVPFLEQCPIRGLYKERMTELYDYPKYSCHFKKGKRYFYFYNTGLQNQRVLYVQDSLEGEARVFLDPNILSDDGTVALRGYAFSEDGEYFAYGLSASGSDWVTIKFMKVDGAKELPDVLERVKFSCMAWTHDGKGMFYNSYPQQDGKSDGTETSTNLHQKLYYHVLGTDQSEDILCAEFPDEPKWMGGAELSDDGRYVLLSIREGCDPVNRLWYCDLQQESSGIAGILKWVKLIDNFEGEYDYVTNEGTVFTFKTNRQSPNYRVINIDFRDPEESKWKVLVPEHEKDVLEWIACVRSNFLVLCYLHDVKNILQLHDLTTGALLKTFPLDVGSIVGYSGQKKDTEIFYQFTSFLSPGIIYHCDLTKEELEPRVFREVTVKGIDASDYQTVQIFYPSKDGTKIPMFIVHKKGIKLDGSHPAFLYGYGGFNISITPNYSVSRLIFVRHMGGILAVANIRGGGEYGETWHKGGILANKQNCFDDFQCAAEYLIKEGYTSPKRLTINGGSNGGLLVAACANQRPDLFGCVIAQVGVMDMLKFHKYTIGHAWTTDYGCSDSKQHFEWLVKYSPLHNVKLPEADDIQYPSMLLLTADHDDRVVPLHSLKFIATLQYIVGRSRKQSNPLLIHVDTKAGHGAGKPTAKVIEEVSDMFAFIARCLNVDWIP
Source text: Beneath Table 1 presents measured affinities to FAP and PREP for the inventive precursor compounds 1-4 and reference compound 5 as well as the original FAP inhibitor UAMC1110 as the current gold standard.

FAP [1] = molecular target: T2, FAP (Homo sapiens, UniProt Q12884); assay: Affinity to FAP (IC50); assay type: biochemical; settings: for affinity to FAP, in words: compared with reference (F) and gold standard (G); for selectivity for FAP over PREP, in words: relative to (G) UAMC1110; for S = PREP IC50/FAP IC50: selectivity FAP over PREP; for SF = S relative to UAMC1110: selectivity factor relative to UAMC1110
T2 sequence (Q12884 1-760): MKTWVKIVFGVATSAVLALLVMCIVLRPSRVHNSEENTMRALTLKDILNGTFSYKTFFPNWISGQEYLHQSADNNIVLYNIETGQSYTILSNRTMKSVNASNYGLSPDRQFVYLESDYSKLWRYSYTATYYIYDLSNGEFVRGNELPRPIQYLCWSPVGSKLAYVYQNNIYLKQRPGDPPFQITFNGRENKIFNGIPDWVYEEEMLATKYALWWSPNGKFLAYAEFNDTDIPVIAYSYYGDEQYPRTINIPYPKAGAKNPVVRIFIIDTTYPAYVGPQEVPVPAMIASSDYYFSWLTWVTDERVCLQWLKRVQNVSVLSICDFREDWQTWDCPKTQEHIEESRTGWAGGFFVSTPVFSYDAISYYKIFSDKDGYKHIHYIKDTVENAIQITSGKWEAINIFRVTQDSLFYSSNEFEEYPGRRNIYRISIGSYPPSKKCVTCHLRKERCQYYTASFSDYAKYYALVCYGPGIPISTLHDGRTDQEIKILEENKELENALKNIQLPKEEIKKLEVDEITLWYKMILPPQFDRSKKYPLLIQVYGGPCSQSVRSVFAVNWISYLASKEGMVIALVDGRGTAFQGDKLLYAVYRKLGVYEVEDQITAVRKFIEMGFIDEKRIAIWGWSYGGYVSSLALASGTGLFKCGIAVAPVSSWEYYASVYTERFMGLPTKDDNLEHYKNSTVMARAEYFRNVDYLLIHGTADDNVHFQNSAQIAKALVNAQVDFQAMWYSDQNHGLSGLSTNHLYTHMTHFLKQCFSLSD

FAP [2] = molecular target: T2, FAP; settings: background statement; cited from earlier work
DPP4 = DPP4 (Homo sapiens, UniProt P27487); settings: background statement; cited from earlier work
DPP4, sequence (P27487 whole entry): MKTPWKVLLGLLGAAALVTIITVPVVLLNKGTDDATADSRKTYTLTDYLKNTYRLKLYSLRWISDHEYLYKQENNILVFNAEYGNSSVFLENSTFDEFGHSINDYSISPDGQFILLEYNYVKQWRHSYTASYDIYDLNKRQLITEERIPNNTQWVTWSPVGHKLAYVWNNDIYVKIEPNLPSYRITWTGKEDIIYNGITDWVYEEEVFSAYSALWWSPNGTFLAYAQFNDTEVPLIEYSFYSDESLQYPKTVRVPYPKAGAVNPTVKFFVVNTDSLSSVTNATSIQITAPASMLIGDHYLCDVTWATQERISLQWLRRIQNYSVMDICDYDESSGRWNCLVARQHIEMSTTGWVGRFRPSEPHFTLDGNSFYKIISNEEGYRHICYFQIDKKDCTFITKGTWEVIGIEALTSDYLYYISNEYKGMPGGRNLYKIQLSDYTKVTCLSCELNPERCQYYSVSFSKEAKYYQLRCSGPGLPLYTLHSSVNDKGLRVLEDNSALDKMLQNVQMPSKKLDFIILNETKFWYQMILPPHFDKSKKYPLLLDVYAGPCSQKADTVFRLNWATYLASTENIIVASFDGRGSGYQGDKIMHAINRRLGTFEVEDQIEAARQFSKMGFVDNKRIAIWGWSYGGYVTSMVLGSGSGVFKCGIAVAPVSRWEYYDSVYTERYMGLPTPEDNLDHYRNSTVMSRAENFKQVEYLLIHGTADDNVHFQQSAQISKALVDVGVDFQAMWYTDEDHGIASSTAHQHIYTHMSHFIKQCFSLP

Structure (SMILES)	IC50 (PREP)	binding to off-target PREP, in words (PREP)	IC50 (FAP [1])	affinity to FAP, in words (FAP [1])	selectivity for FAP over PREP, in words (FAP [1])	S = PREP IC50/FAP IC50 (FAP [1])	SF = S relative to UAMC1110 (FAP [1])	FAP affinity (FAP [2])	DPP4 affinity (DPP4)
CN(CC(=O)O)C1(CCCCC(=O)N[C@H]2CCN(CC(=O)NCCCCOc3ccc4nccc(C(=O)NCC(=O)N5CC(F)(F)C[C@H]5C#N)c4c3)C2)CN(CC(=O)O)CCN(CC(=O)O)C1 [(D), 2,2′-(6-((carboxymethyl)(methyl)amino)-6-(5-(((S)-1-(2-((4-((4-((2-((S)-2-cyano-4,4-difluoropyrrolidin-1-yl)-2-oxoethyl)carbamoyl)quinolin-6-yl)oxy)butyl)amino)-2-oxoethyl)pyrrolidin-3-yl)amino)-5-oxopentyl)-1,4-diazepane-1,4-diyl)diacetic Acid]	3300 ± 200 nM	reduced binding to off-target PREP compared to reference (F) and (G)	0.28 ± 0.02 nM	higher affinity to FAP than reference compound (F) and the UAMC1110 gold standard (G)	three times higher than that of (G)	11.8 × 10^3	2.8	–	–
CN(CC(=O)NCCCCOc1ccc2nccc(C(=O)NCC(=O)N3CC(F)(F)C[C@H]3C#N)c2c1)[C@H]1CCN(C(=O)CCCCC2(N(C)CC(=O)O)CN(CC(=O)O)CCN(CC(=O)O)C2)C1 [(E), 2,2′-(6-((carboxymethyl)(methyl)amino)-6-(5-((S)-3-((2-((4-((4-((2-((S)-2-cyano-4,4-difluoropyrrolidin-1-yl)-2-oxoethyl)carbamoyl)quinolin-6-yl)oxy)butyl)amino)-2-oxoethyl)(methyl)amino)pyrrolidin-1-yl)-5-oxopentyl)-1,4-diazepane-1,4-diyl)diacetic Acid]	2600 ± 300 nM	reduced binding to off-target PREP compared to reference (F) and (G)	0.31 ± 0.02 nM	higher affinity to FAP than reference compound (F) and the UAMC1110 gold standard (G)	twice that of (G)	8.4 × 10^3	2.0	–	–
N#C[C@@H]1CC(F)(F)CN1C(=O)CNC(=O)c1ccnc2ccccc12 [(G), (S)-N-(2-(2-cyano-4,4-difluoropyrrolidin-1-yl)-2-oxoethyl)quinoline-4-carboxamide]	–	–	–	–	–	–	–	low nM range	μM range
CN(CC(=O)O)C1(CCCCC(=O)NCCCCOc2ccc3nccc(C(=O)NCC(=O)N4CC(F)(F)C[C@H]4C#N)c3c2)CN(CC(=O)O)CCN(CC(=O)O)C1 [Compound (A), (S)-2,2′-(6-((carboxymethyl)(methyl)amino)-6-(5-((4-((4-((2-(2-cyano-4,4-difluoropyrrolidin-1-yl)-2-oxoethyl)carbamoyl)quinolin-6-yl)oxy)butyl)amino)-5-oxopentyl)-1,4-diazepane-1,4-diyl)diacetic Acid]	6400 ± 400 nM	reduced binding to off-target PREP compared to reference (F) and (G)	0.27 ± 0.02 nM	higher affinity to FAP than reference compound (F) and the UAMC1110 gold standard (G)	six times that of (G)	23.7 × 10^3	5.6	–	–
CN(CC(=O)O)C1(CCCCC(=O)N2CCN(CC(=O)NCCCCOc3ccc4nccc(C(=O)NCC(=O)N5CC(F)(F)C[C@H]5C#N)c4c3)CC2)CN(CC(=O)O)CCN(CC(=O)O)C1 [Compound (B), (S)-2,2′-(6-((carboxymethyl)(methyl)amino)-6-(5-(4-(2-((4-((4-((2-(2-cyano-4,4-difluoropyrrolidin-1-yl)-2-oxoethyl)carbamoyl)quinolin-6-yl)oxy)butyl)amino)-2-oxoethyl)piperazin-1-yl)-5-oxopentyl)-1,4-diazepane-1,4-diyl)diacetic Acid]	1500 ± 300 nM	comparable to (F) and (G)	0.27 ± 0.01 nM	higher affinity to FAP than reference compound (F) and the UAMC1110 gold standard (G)	–	5.6 × 10^3	1.3	–	–
